Results published in ChEMBL document CHEMBL1153256, “Unusual stereochemical preferences of decahydroisoquinoline-3-cargoxylic acid competitive NMDA antagonists” (Bioorg Med Chem Lett, 1993).

Legend:
[1] = organism: Mus musculus; test: Minimum effective dose to prevent NMDA-induced lethality in mice; format: functional
[2] = target: Glutamate NMDA receptor; test: Inhibition of [3H]-CGS- 19755 binding to rat brain membrane NMDA receptor
[3] = organism: Rattus norvegicus; test: Compound was tested for relative potency as NMDA antagonist by determining its ability to inhibit depolarizations induced by 40 uM NMDA in a cortical slice preparation.; format: functional

SMILES	MED [1] [mg/kg]	IC50 [2] [nM]	IC50 [3] [nM]
O=C(O)C1CC2CC(Cc3nnn[nH]3)CCC2CN1 (racemic; form 1)	40	3410	4800
O=C(O)C1CC2CC(CP(=O)(O)O)CCC2CN1 (racemic; form 1)	1.25	55	150
O=C(O)C1CC2CC(Cc3nnn[nH]3)CCC2CN1 (racemic; form 2)	2.5	940	1390
O=C(O)C1CC2CC(CP(=O)(O)O)CCC2CN1 (racemic; form 2)	2.5	820	1700
O=C(O)C1CC2CC(Cc3nnn[nH]3)CCC2CN1 (single isomer, unassigned; (+))	>160	22600	> 100000
O=C(O)C1CC2CC(CP(=O)(O)O)CCC2CN1 (single isomer, unassigned; (-))	0.625	25	220
O=C(O)C1CC2CC(CP(=O)(O)O)CCC2CN1 (stereo in doubt; (+)-1 R)	80	8400	33000
O=C(O)C1CC2CC(CP(=O)(O)O)CCC2CN1 (stereo in doubt; (+)-3 S)		8700	
O=C(O)C1CC2CC(Cc3nnn[nH]3)CCC2CN1 (stereo in doubt; (+)-4 S)		5160	28000
O=C(O)C1CC2CC(Cc3nnn[nH]3)CCC2CN1 (stereo in doubt; (-)-2 S)	1.25	420	820
O=C(O)C1CC2CC(CP(=O)(O)O)CCC2CN1 (stereo in doubt; (-)-3 R)		670	
O=C(O)C1CC2CC(Cc3nnn[nH]3)CCC2CN1 (stereo in doubt; (-)-4 R)		3320	6200
